According to EP2292587A1, “PHARMACEUTICAL COMPOSITION FOR INHIBITING THE TRANSCRIPTION FACTOR INDUCIBLE BY HYPOXIA, MODULATORS OF PATHOLOGICAL PROCESSES OF ANGIOGENESIS, ONCOGENESIS, INFLAMMATION, APOPTOSIS, AND CELLULAR THERAPY” (Fundacion De La Comunidad Valenciana Centro De …, priority 2008, dated 2009):

Tests used:
PHD3, HIF1α and HIF2α = assay: Western blot of HIF target proteins in HeLa9XHRE-LUC cells; assay type: cell-based; set-up: dose or concentration left out as unconfirmed; conditions: hypoxic conditions, 9 hours
Description: The HeLa9XHRE/LUC cells were lysed with a hypotonic buffer (10 mM Tris-HCl, pH 7.5, 1.5 mM MgCl2, I mM KCIO, 2 mM DTT, 1 mM Pefabloc, 2 mM sodium vanadate, 4 µg/ml pepstatin, 4 µg/ml leupeptin, and 4 µg/ml aprotinin), preserved 20 minutes in ice and subsequently centrifuged for 10 minutes at 1,200 rpm, collecting the supernatant and preserving it at -20°C until its use. The quantification of the proteins was performed with colorimetric Coomassie blue method described by Bradford. A commercial system was used following the manufacturer's instructions (PIERCE Chem Co., Rockford III. USA). Bovine serum albumin (A-7906, SIGMA Chem Co., St. Louis MO, USA) was used to generate a standard curve (0-200 µg of protein). Five microliters of each sample were pipetted in a 96-well plate and […] of the Coomassie solution were added and it was maintained in darkness for 5 minutes at room temperature and the absorbance at OD 595 nm was measured in a spectrophotometer. By means of the Graph-Pad statistical program, the standard line was calculated and the values were extrapolated for each of the samples. The final values were expressed as mcg/mcl of protein. The electrophoresis of proteins of the extract was carried out in polyacrylamide gels under denaturing conditions (SDS-PAGE). A commercial mixture of proteins for low molecular mass polypeptides (Amersham) was used as a molecular size standard. […]

Sox2 and Oct3/4 = assay: qPCR of Sox2 and Oct3/4 in H9 hESCs; assay type: cell-based, human; conditions: 500 nM, 48 hours, hypoxia (1% O2)
Description: Culture of the H9 human embryonic cell (hESC) line: To maintain and propagate the hESC line (up to no more than 70 passes), the hESCs are cultured on a monolayer of mouse fibroblasts inactivated with mitomycin C (Sigma Aldrich, Sweden) (Thomson et al., [1998]). To study the transcriptional changes of SOx2 and Oct3/4, the undifferentiated colonies of hESCs were transferred, by mechanical dissociation, to a culture plate coated with a thin layer of Matrigel® and are cultured in the presence of conditioned medium. The conditioned medium is obtained from the culture of confluent and inactivated mouse fibroblasts, seeded on plates coated with gelatin (0.1 %; Sigma).
Using the experimental conditions described in Example 35, the procedure was the same including in this case the TaqMan probes for human Sox2, Oct3/4 and GAPDH (Sox2: Hs01053049_s1; Oct3/4:Hs01895061_u1; GAPDH: Hs99999905_m1). […] The expression levels of both messenger RNAs are induced under hypoxic conditions versus normoxic conditions (high oxygen culture conditions ~ 20% O2),

mTOR = assay: activation kinetics of mTOR signaling pathway, HCT116/p53-/-; assay type: cell-based, human; conditions: 0.5 µM
Description: Due to the crucial role of p53 as a tumor-suppressing agent, it was analyzed in HCT116 cells how FM19G11 affected the activation kinetics of proteins involved in favoring cell cycle progress, specifically the mTOR cell signaling pathway. An increase of cell progress can be due to replicative stress which generates DNA damage (Bartkova, J, Horejsi, Z, Koed, K, Kramer, A, Tort, F, Zieger, K et al., (2005) DNA damage response as a candidate anti-cancer barrier in early human tumorigenesis. Nature 434: 864-70; Bartkova, J, Rezaei, N, Liontos, M, Karakaidos, P, Kletsas, D, Issaeva, N et al., (2006) Oncogene-induced senescence is part of the tumorigenesis barrier imposed by DNA damage checkpoints. Nature 444: 633-7; Di Micco, R, Fumagalli, M, Cicalese, A, Piccinin, S, Gasparini, P, Luise, C et al., (2006) Oncogene-induced senescence is a DNA damage response triggered by DNA hyper-replication. Nature 444: 638-42), it was explored if the DDR triggered by FM19G11 was related to an increase of the cell cycle progress signal modulated by the mTOR signaling pathway. […]

Structure (SMILES): Cc1ccc(C(=O)COC(=O)c2cccc(NC(=O)c3ccc([N+](=O)[O-])cc3[N+](=O)[O-])c2)cc1 [FM19G11, 2-oxo-2-(p-tolyl)ethyl 3-((2,4-dinitro)benzamido)benzoate]
- expression of HIF 1α and 2α, as well as of PHD3 (PHD3, HIF1α and HIF2α): decrease
- expression of both Sox2 and Oct3/4 (mRNA) (Sox2 and Oct3/4): significantly inhibits
- mTOR phosphorylation (fold change) (mTOR): ≤ 2
